Measurements: patent US4568690A, “1-Methyl-5-p-methylbenzoylpyrrole-2-acetamidoacetanilides with antiinflammatory, analgesic, antipyretic and anti-platelet aggregant activity” (priority 1983, dated 1986)
Read-outs that look alike come from different tables or passages of the source.

Assays:
[1] = test system: platelet aggregation (ADP-induced); assay: in vitro anti-platelet aggregant activity (Born's method, ADP); type: cell-based, rat; conditions: for inhibition at 1 µg/mL / inhibition at 5 µg/mL / inhibition at 10 µg/mL: Rattus norvegicus, Platelet, read-out: Inhibition % (platelet aggregation)
Description: This activity was studied in vitro following Born's method (G. W. R. Born, Nature, 194, 937 (1962)) and inducing platelet aggregation with ADP. […] For the aggregation test, 0.2 ml of platelet rich plasma was mixed with a NaCl solution (0.9%) to which the test substance was added up to a final volume of 0.6 ml. Incubation was fixed at 3 minutes at 27° C. After aggregation was induced with ADP, the course of the aggregation was monitored continuously with an Elvi 840 Aggregometer (Elvi Logos--Milan). The antiaggregant effects were determined by the difference in the light transmission of the sample with respect to that of the ADP control. The test compound was compared with aspirin, which has known antiplatelet aggregant activity (H. J. Weiss et al., J. Clin. Inv., 47, 2169 (1968); Platelet Aggregation and Drugs, edited by L. Caprino and E. C. Rossi, page 235, Academic Press (London), 1974).
Table VI reports the inhibition of platelet aggregation with various doses of the compounds tested at a constant ADP concentration.

carragenin-induced edema = carragenin-induced edema test (antinflammatory activity); type: in vivo, rats
Description: (§1) Preparations of the compound were administered orally and/or parenterally in a suspension in 0.59% carboxymethylcellulose in pH neutral physiological saline.
This effect was evaluated with an experimental model reproducing actue inflammation in rats: the carragenin-induced edema test was used, according to the method of C. A. Winter (G. Pharmac. Exp. Ther., 141, 369 (1963)). Table III reports the compounds tested, their concentrations, administration routes and relative percent edema inhibition.

[2] = test system: p-phenylquinone-induced writhing; assay: p-phenylquinone-induced writhing test (analgesic activity); type: in vivo; conditions: an hour after administration
Description: as §1
The determination was made an hour after administration of the product. The inhibitory effect on abdominal contractions induced by phenyl-p-quinone was calculated as follows: [formula]
Table IV reports the doses, the administration routes and their effectiveness expressed as % protection.

[3] = test system: hyperthermia induced by dry purified beer yeast; assay: antipyretic activity, beer yeast-induced hyperthermia; type: in vivo, Wistar strain male albino rats
Description: as §1
This effect was evaluated by inducing hyperthermia in Wistar strain male albino rats with an average weight of 250±10 g, injecting them intraperitoneally with a 10% suspension of dry purified beer yeast (Carlo Erba) in a volume of 10 ml/Kg of body weight, according to the method of S. Wong et al. (J. Pharmac. Exp. Ther., 185 (1), 127 (1973)).

gastric mucosa = assay: gastric tolerance (ulcerogenic activity); conditions: orally, four consecutive days; for Mean number severity: severity scale 0-5
Description: This was studied by testing ulcerogenic activity in male Wistar rats weighing an average of 180 g, using groups of 10 animals each. Three doses of each substance were used, and one group of animals was treated with vehicle only, in a volume of 10 ml/g body weight. Each dose was administered orally for four consecutive days, and the rats were killed on the fifth day and autopsied. The ulcerogenic effect was evaluated on the following scale:
(1) each hemorrhage point >1 mm was evaluated as 1 lesion
(2) the hemorrhage points <1 were counted as follows:
(b) from 1 to 19 2 lesions
(c) from 1 to 29 3 lesions
(2) gastric mucosa irritation
(3) hemorrhage points <1 mm
(4) hemorrhage points from 1 to 3 mm
(5) hemorrhage points >3 mm
This scale was used to calculate the following index of gastric damage: [formula]

## CC(=O)Oc1ccccc1C(=O)O [Aspirin, reference compound]
[1]
  inhibition at 1 µg/mL: 15%
  inhibition at 5 µg/mL: 60%
  inhibition at 10 µg/mL: 100%

## COc1ccccc1NC(=O)CNC(=O)Cc1ccc(C(=O)c2ccc(C)cc2)n1C [Compound 1d]
carragenin-induced edema; i.p., 10 mg/kg, 3 h
  Oedema inhibition %: 48.7%
carragenin-induced edema; i.p., 10 mg/kg, 6 h
  Oedema inhibition %: 36.5%
carragenin-induced edema; i.p., 10 mg/kg, 24 h
  Oedema inhibition %: 0.0%
carragenin-induced edema; i.p., 50 mg/kg, 3 h
  Oedema inhibition %: 59.2%
carragenin-induced edema; i.p., 50 mg/kg, 6 h
  Oedema inhibition %: 52.0%
carragenin-induced edema; i.p., 50 mg/kg, 24 h
  Oedema inhibition %: 18.9%
carragenin-induced edema; i.p., 100 mg/kg, 3 h
  Oedema inhibition %: 78.6%
carragenin-induced edema; i.p., 100 mg/kg, 6 h
  Oedema inhibition %: 66.3%
carragenin-induced edema; i.p., 100 mg/kg, 24 h
  Oedema inhibition %: 30.5%
carragenin-induced edema; os, 10 mg/kg, 3 h
  Oedema inhibition %: 47.2%
carragenin-induced edema; os, 10 mg/kg, 6 h
  Oedema inhibition %: 40.0%
carragenin-induced edema; os, 10 mg/kg, 24 h
  Oedema inhibition %: 9.0%
carragenin-induced edema; os, 50 mg/kg, 3 h
  Oedema inhibition %: 58.5%
carragenin-induced edema; os, 50 mg/kg, 6 h
  Oedema inhibition %: 54.0%
carragenin-induced edema; os, 50 mg/kg, 24 h
  Oedema inhibition %: 30.0%
carragenin-induced edema; os, 100 mg/kg, 3 h
  Oedema inhibition %: 77.1%
carragenin-induced edema; os, 100 mg/kg, 6 h
  Oedema inhibition %: 66.0%
carragenin-induced edema; os, 100 mg/kg, 24 h
  Oedema inhibition %: 38.0%
carragenin-induced edema; rat, in vivo
  antinflammatory, analgesic and antipyretic activity versus ester analogue (4) (in words): comparable to that of the ester analogue (4)
[2]; i.p., 5 mg/kg
  Protection %: 29.0%
[2]; i.p., 10 mg/kg
  Protection %: 60.1%
[2]; i.p., 20 mg/kg
  Protection %: 73.4%
[2]; os, 5 mg/kg
  Protection %: 22.9%
[2]; os, 10 mg/kg
  Protection %: 54.2%
[2]; os, 20 mg/kg
  Protection %: 70.1%
[3]; i.p., 50 mg/kg, 1 h
  Temperature decrease %: 18.0%
[3]; i.p., 50 mg/kg, 2 h
  Temperature decrease %: 26.0%
[3]; i.p., 50 mg/kg, 3 h
  Temperature decrease %: 39.0%
[3]; i.p., 75 mg/kg, 1 h
  Temperature decrease %: 30.0%
[3]; i.p., 75 mg/kg, 2 h
  Temperature decrease %: 36.1%
[3]; i.p., 75 mg/kg, 3 h
  Temperature decrease %: 56.1%
[3]; i.p., 100 mg/kg, 1 h
  Temperature decrease %: 42.0%
[3]; i.p., 100 mg/kg, 2 h
  Temperature decrease %: 49.0%
[3]; i.p., 100 mg/kg, 3 h
  Temperature decrease %: 48.0%
[3]; os, 50 mg/kg, 1 h
  Temperature decrease %: 16.0%
[3]; os, 50 mg/kg, 6 h
  Temperature decrease %: 22.0%
[3]; os, 50 mg/kg, 24 h
  Temperature decrease %: 30.1%
[3]; os, 75 mg/kg, 1 h
  Temperature decrease %: 18.0%
[3]; os, 75 mg/kg, 6 h
  Temperature decrease %: 28.0%
[3]; os, 75 mg/kg, 24 h
  Temperature decrease %: 48.2%
[3]; os, 100 mg/kg, 1 h
  Temperature decrease %: 29.0%
[3]; os, 100 mg/kg, 6 h
  Temperature decrease %: 32.0%
[3]; os, 100 mg/kg, 24 h
  Temperature decrease %: 50.0%
[1]
  anti-platelet aggregant activity (in words): particularly pronounced anti-platelet aggregant activity
[1]; 1 γ/ml, ADP 7.08 μmol/l
  inhibition at 1 µg/mL: 20%
[1]; 5 γ/ml, ADP 7.08 μmol/l
  inhibition at 5 µg/mL: 70%
[1]; 10 γ/ml, ADP 7.08 μmol/l
  inhibition at 10 µg/mL: 90%
Gastric mucosa; 50 mg/kg
  Index gastric damage: 9
  Index gastric damage, signed figure (untitled; difference from Carrier index 8): +1
  Mean number lesions: 1
  Mean number severity: 1
Gastric mucosa; 100 mg/kg
  Index gastric damage: 11
  Index gastric damage, signed figure (untitled; difference from Carrier index 8): +3
  Mean number lesions: 1
  Mean number severity: 2
Gastric mucosa; 200 mg/kg
  Index gastric damage: 12
  Index gastric damage, signed figure (untitled; difference from Carrier index 8): +4
  Mean number lesions: 2
  Mean number severity: 2
